Assay results reported in PubChem BioAssay AID1963845 (Molecular Pharmacology Branch, DTP, NCI, 2024).

System: 429239-143-T-J1-PDC complex spheroid viability
Test: Anticancer human tumor 429239-143-T-J1-PDC patient-derived small cell lung carcinoma cell line growth inhibition [POLQ]
Conditions: for IC50: curve of first compound; for viability, T/C: stronger effect = lower value
How it was run: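 PDC + HUVEC + MSC complex spheroids; POLQ inhibitors ± partner drugs; top conc. at/near clinical Cmax, else 10 microM (SN-38 1 microM), half-log dilutions; 37 degrees C, 5% CO2.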

[1] = second compound 0.0316 µM, first compound 0.0316 µM
[2] = second compound 0.0316 µM, first compound 0.1 µM
[3] = second compound 0.0316 µM, first compound 0.316 µM
[4] = second compound 0.0316 µM, first compound 1 µM
[5] = second compound 0.0316 µM, first compound 3.16 µM
[6] = second compound 0.0316 µM, first compound 10 µM
[7] = second compound 0.1 µM, first compound 0.0316 µM
[8] = second compound 0.1 µM, first compound 0.1 µM
[9] = second compound 0.1 µM, first compound 0.316 µM
[10] = second compound 0.1 µM, first compound 1 µM
[11] = second compound 0.1 µM, first compound 3.16 µM
[12] = second compound 0.1 µM, first compound 10 µM
[13] = second compound 0.316 µM, first compound 0.0316 µM
[14] = second compound 0.316 µM, first compound 0.1 µM
[15] = second compound 0.316 µM, first compound 0.316 µM
[16] = second compound 0.316 µM, first compound 1 µM
[17] = second compound 0.316 µM, first compound 3.16 µM
[18] = second compound 0.316 µM, first compound 10 µM
[19] = second compound 1 µM, first compound 0.0316 µM
[20] = second compound 1 µM, first compound 0.1 µM
[21] = second compound 1 µM, first compound 0.316 µM
[22] = second compound 1 µM, first compound 1 µM
[23] = second compound 1 µM, first compound 3.16 µM
[24] = second compound 1 µM, first compound 10 µM
[25] = second compound 3.16 µM, first compound 0.0316 µM
[26] = second compound 3.16 µM, first compound 0.1 µM
[27] = second compound 3.16 µM, first compound 0.316 µM
[28] = second compound 3.16 µM, first compound 1 µM
[29] = second compound 3.16 µM, first compound 3.16 µM
[30] = second compound 3.16 µM, first compound 10 µM
[31] = second compound 10 µM, first compound 0.0316 µM
[32] = second compound 10 µM, first compound 0.1 µM
[33] = second compound 10 µM, first compound 0.316 µM
[34] = second compound 10 µM, first compound 1 µM
[35] = second compound 10 µM, first compound 3.16 µM
[36] = second compound 10 µM, first compound 10 µM
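Further: luminescence signal used as surrogate measure of viable cells; spheroids exposed to compounds for seven days before readout.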
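Wherever viability, T/C is given: 100% = DMSO vehicle control viability as luminescence relative to vehicle.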

CCCS(=O)(=O)Nc1ccc(F)c(C(=O)c2c[nH]c3ncc(-c4ccc(Cl)cc4)cc23)c1F + Cc1cccc(N(C)C(=O)C2C(O)CCN2c2nc(C)cc(C(F)(F)F)c2C#N)c1
IC50 (second compound 0.0316 µM): > 10 µM | IC50 (second compound 0.1 µM): > 10 µM | IC50 (second compound 0.316 µM): > 10 µM | IC50 (second compound 1 µM): > 10 µM | IC50 (second compound 3.16 µM): > 10 µM | IC50 (second compound 10 µM): > 10 µM | viability, T/C [1]: 91.3% | viability, T/C [2]: 106% | viability, T/C [3]: 88.6% | viability, T/C [4]: 93.4% | viability, T/C [5]: 94% | viability, T/C [6]: 81.7% | viability, T/C [7]: 92.2% | viability, T/C [8]: 89.9% | viability, T/C [9]: 89.4% | viability, T/C [10]: 97.2% | viability, T/C [11]: 93.6% | viability, T/C [12]: 82.8% | viability, T/C [13]: 99.5% | viability, T/C [14]: 92.8% | viability, T/C [15]: 96.9% | viability, T/C [16]: 94.1% | viability, T/C [17]: 87.5% | viability, T/C [18]: 79% | viability, T/C [19]: 103% | viability, T/C [20]: 87.7% | viability, T/C [21]: 92.3% | viability, T/C [22]: 91% | viability, T/C [23]: 90.3% | viability, T/C [24]: 77.5% | viability, T/C [25]: 98.8% | viability, T/C [26]: 96.9% | viability, T/C [27]: 97.4% | viability, T/C [28]: 94.2% | viability, T/C [29]: 105% | viability, T/C [30]: 79.5% | viability, T/C [31]: 100% | viability, T/C [32]: 105% | viability, T/C [33]: 85.2% | viability, T/C [34]: 93.5% | viability, T/C [35]: 98.8% | viability, T/C [36]: 81.9%

O=c1[nH]cc(F)c(=O)[nH]1 + Cc1cccc(N(C)C(=O)C2C(O)CCN2c2nc(C)cc(C(F)(F)F)c2C#N)c1
IC50 (second compound 0.0316 µM): > 10 µM | IC50 (second compound 0.1 µM): 6.82 µM | IC50 (second compound 0.316 µM): > 10 µM | IC50 (second compound 1 µM): 9.33 µM | IC50 (second compound 3.16 µM): > 10 µM | IC50 (second compound 10 µM): 9.51 µM | viability, T/C [1]: 108% | viability, T/C [2]: 109% | viability, T/C [3]: 101% | viability, T/C [4]: 105% | viability, T/C [5]: 65.9% | viability, T/C [6]: 54.5% | viability, T/C [7]: 106% | viability, T/C [8]: 92.3% | viability, T/C [9]: 104% | viability, T/C [10]: 91.1% | viability, T/C [11]: 61.4% | viability, T/C [12]: 44.4% | viability, T/C [13]: 96.6% | viability, T/C [14]: 112% | viability, T/C [15]: 101% | viability, T/C [16]: 104% | viability, T/C [17]: 56.5% | viability, T/C [18]: 50.8% | viability, T/C [19]: 105% | viability, T/C [20]: 110% | viability, T/C [21]: 120% | viability, T/C [22]: 87.8% | viability, T/C [23]: 72.4% | viability, T/C [24]: 47.7% | viability, T/C [25]: 95.9% | viability, T/C [26]: 97.2% | viability, T/C [27]: 114% | viability, T/C [28]: 78.2% | viability, T/C [29]: 56.5% | viability, T/C [30]: 47.6% | viability, T/C [31]: 98.7% | viability, T/C [32]: 93.9% | viability, T/C [33]: 97.5% | viability, T/C [34]: 83.9% | viability, T/C [35]: 65% | viability, T/C [36]: 49.2%

CNCc1ccc(-c2[nH]c3cc(F)cc4c3c2CCNC4=O)cc1 + Nc1ccc(C#CCN(C(=O)Cc2ncc(C(F)(F)F)cc2C(F)(F)F)c2ccc(F)cc2)nn1
IC50 (second compound 0.0316 µM): 6.53 µM | IC50 (second compound 0.1 µM): 6.07 µM | IC50 (second compound 0.316 µM): 6.32 µM | IC50 (second compound 1 µM): 5.54 µM | IC50 (second compound 3.16 µM): 6.09 µM | IC50 (second compound 10 µM): 5.96 µM | viability, T/C [1]: 98.7% | viability, T/C [2]: 99.6% | viability, T/C [3]: 97.7% | viability, T/C [4]: 94.6% | viability, T/C [5]: 82.4% | viability, T/C [6]: 30.9% | viability, T/C [7]: 92.7% | viability, T/C [8]: 88.4% | viability, T/C [9]: 90.6% | viability, T/C [10]: 86.8% | viability, T/C [11]: 80.6% | viability, T/C [12]: 26.5% | viability, T/C [13]: 97.2% | viability, T/C [14]: 94.7% | viability, T/C [15]: 98.5% | viability, T/C [16]: 93.5% | viability, T/C [17]: 79.4% | viability, T/C [18]: 30.6% | viability, T/C [19]: 106% | viability, T/C [20]: 96.1% | viability, T/C [21]: 86.3% | viability, T/C [22]: 84.8% | viability, T/C [23]: 79.3% | viability, T/C [24]: 24% | viability, T/C [25]: 104% | viability, T/C [26]: 92.2% | viability, T/C [27]: 94.7% | viability, T/C [28]: 90.7% | viability, T/C [29]: 75.1% | viability, T/C [30]: 31.4% | viability, T/C [31]: 101% | viability, T/C [32]: 80.5% | viability, T/C [33]: 87.6% | viability, T/C [34]: 83% | viability, T/C [35]: 81.8% | viability, T/C [36]: 24.1%
